Measurements taken from ChEMBL document CHEMBL4420071, “Method for treating skin with retinoids and retinoid boosters” (2013).

Experiments:
[1] = target: T1, Diacylglycerol O-acyltransferase 1 (Bos taurus) (UniProt Q8MK44); assay: Inhibition of ARAT in bovine RPE microsomes at 10 uM using retinol substrate in presence of dilauroyl-phosphatidyl choline incubated for 5 mins by HPLC analysis relative to control
T1 sequence (whole entry): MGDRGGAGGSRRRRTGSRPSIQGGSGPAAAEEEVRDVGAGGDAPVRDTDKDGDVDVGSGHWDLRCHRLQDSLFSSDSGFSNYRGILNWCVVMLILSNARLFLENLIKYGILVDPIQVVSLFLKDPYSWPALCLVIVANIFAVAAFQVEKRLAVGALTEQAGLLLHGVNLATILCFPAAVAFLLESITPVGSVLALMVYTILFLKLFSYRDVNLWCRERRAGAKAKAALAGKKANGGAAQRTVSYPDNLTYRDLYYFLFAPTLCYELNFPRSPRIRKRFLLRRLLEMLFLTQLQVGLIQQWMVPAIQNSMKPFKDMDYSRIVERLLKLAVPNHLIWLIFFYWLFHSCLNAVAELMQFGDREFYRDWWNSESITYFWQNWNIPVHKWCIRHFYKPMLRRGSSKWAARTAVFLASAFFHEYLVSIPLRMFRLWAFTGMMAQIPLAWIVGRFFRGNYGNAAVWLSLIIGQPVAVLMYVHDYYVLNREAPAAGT

[2] = target: T2, Lecithin retinol acyltransferase (Bos taurus) (UniProt Q9BGL2); details: at 100 µM
T2 sequence (whole entry): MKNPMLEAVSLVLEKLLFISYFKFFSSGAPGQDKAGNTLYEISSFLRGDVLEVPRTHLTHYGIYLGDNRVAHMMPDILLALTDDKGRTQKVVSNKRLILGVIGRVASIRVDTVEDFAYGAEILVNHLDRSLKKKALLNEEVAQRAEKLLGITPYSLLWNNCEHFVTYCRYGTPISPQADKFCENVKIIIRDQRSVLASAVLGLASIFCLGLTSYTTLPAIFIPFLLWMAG
Description: Inhibition of LRAT in bovine RPE microsomes at 100 uM using retinol substrate in presence of Palmitoyl-CoA incubated for 5 mins by HPLC analysis relative to control

[3] = target: T2, Lecithin retinol acyltransferase (Bos taurus); assay: Inhibition of LRAT in bovine RPE microsomes at 10 uM using retinol substrate in presence of Palmitoyl-CoA incubated for 5 mins by HPLC analysis relative to control
[4] = organism: Homo sapiens
Description: Inhibition of transglutaminase in human keratinocytes in presence of 10 uM retinal relative to retinal alone

[5] = target: T1, Diacylglycerol O-acyltransferase 1 (Bos taurus); details: at 100 µM
Description: Inhibition of ARAT in bovine RPE microsomes at 100 uM using retinol substrate in presence of dilauroyl-phosphatidyl choline incubated for 5 mins by HPLC analysis relative to control

[6] = organism: Homo sapiens; assay: Inhibition of transglutaminase in human keratinocytes assessed as mean transglutaminase activity level at 3.29 10^-7M in presence of 10 uM retinal relative to retinal alone; type: cell-based; parameters: scale not given: the % may be the effect or the level left
[7] = organism: Homo sapiens; assay: Inhibition of transglutaminase in human keratinocytes assessed as mean transglutaminase activity level at 5.0 10^-8M in presence of 10 uM retinal relative to retinal alone; type: cell-based; parameters: scale not given: the % may be the effect or the level left
[8] = target: T3, Cellular retinoic acid-binding protein 2 (Homo sapiens) (UniProt P29373); assay: Inhibition of radioactive all-trans retinoic acid binding to CRABP2 (unknown origin) expressed in Escherichia coli BLR(DE3)pLys incubated for 1 hr by scintillation counting assay; details: concentration not given here
T3 sequence (whole entry): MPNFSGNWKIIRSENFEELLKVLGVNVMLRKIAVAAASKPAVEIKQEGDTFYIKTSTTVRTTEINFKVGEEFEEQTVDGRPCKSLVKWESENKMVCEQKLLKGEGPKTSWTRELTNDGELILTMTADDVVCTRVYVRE

[9] = organism: Homo sapiens; assay: Inhibition of transglutaminase in human keratinocytes assessed as mean transglutaminase activity level at 1.1 10^-4M in presence of 10 uM retinal relative to retinal alone; type: cell-based; parameters: scale not given: the % may be the effect or the level left
[10] = organism: Homo sapiens; assay: Inhibition of transglutaminase in human keratinocytes assessed as mean transglutaminase activity level at 1.65 10^-7M in presence of 10 uM retinal relative to retinal alone; type: cell-based; parameters: scale not given: the % may be the effect or the level left
[11] = organism: Homo sapiens; assay: Inhibition of transglutaminase in human keratinocytes assessed as mean transglutaminase activity level at 4.1 10^-5M in presence of 10 uM retinal relative to retinal alone; type: cell-based; parameters: scale not given: the % may be the effect or the level left
[12] = organism: Homo sapiens; assay: Inhibition of transglutaminase in human keratinocytes assessed as mean transglutaminase activity level at 3.73 10^-4M in presence of 10 uM retinal relative to retinal alone; type: cell-based; parameters: scale not given: the % may be the effect or the level left
[13] = organism: Homo sapiens; assay: Inhibition of transglutaminase in human keratinocytes assessed as mean transglutaminase activity level at 1.23 10^-5M in presence of 10 uM retinal relative to retinal alone; type: cell-based; parameters: scale not given: the % may be the effect or the level left
[14] = organism: Homo sapiens; assay: Inhibition of transglutaminase in human keratinocytes assessed as mean transglutaminase activity level at 1.0 10^-3M in presence of 10 uM retinal relative to retinal alone; type: cell-based; parameters: scale not given: the % may be the effect or the level left
[15] = organism: Homo sapiens; assay: Inhibition of transglutaminase in human keratinocytes assessed as mean transglutaminase activity level at 8.2 10^-6M in presence of 10 uM retinal relative to retinal alone; type: cell-based; parameters: scale not given: the % may be the effect or the level left
[16] = organism: Homo sapiens; assay: Inhibition of transglutaminase in human keratinocytes assessed as mean transglutaminase activity level at 1.1 10^-8M in presence of 10 uM retinal relative to retinal alone; type: cell-based; parameters: scale not given: the % may be the effect or the level left

Structure (SMILES)	inhibition [2] [%]	IC20 [4]	inhibition [5] [%]	other results
CC(C)=CCCC(C)=CCCC(C)=CCO	53	7.82 ×10⁻⁵ M	53	inhibition [1]: 23%; inhibition [3]: 10%
CC(/C=C/C=C(\C)C(=O)O)=C\C=C\C=C(C)\C=C\C=C(/C)C(=O)O	–	2.52 ×10⁻⁵ M	–	inhibition [3]: 0%
C/C=C/C(=O)C1=C(C)C=CCC1(C)C	79	–	70	inhibition [3]: 29%
CC(=O)/C(C)=C/C1C(C)=CCCC1(C)C (stereo not drawn)	38	–	–	–
CC(C)=CCC/C(C)=C/CO	–	4.72 ×10⁻³ M	–	–
CCCCCCCC/C=C/CCCCCCCC(=O)O	–	5.88 ×10⁻⁵ M	–	Activity [6]: 69%; Activity [7]: 50.5%; inhibition [8]: > 50%; Activity [9]: 8%; Activity [10]: 58%; Activity [11]: 58.2%; Activity [12]: 13.8%; Activity [13]: 80.9%; Activity [14]: 12.8%
CCCCCCCC/C=C\CCCCCCCC[N+](C)(C)CC(=O)[O-]	–	1.08 ×10⁻⁵ M	47	–
O=C(O)CCCCCCCCCCCCCCC(=O)O	–	8.4 ×10⁻⁵ M	–	Activity [15]: 114%; Activity [7]: 74%; inhibition [8]: > 50%; Activity [9]: 14.2%; Activity [10]: 95%; Activity [11]: 105%; Activity [12]: 43.4%; Activity [16]: 70%; Activity [13]: 130%
C/C=C/C(=O)C1=C(C)CC(C)(C)CC1	–	–	80	–
CC(C)(C)C(=O)C(Oc1ccc(Cl)cc1)n1ccnc1 (stereo not drawn)	–	2.45 ×10⁻⁷ M	–	–
CCCCCCCCCCCCCC(=O)N(C)CC(=O)O	11	–	41	–
O=c1c2cccc3cccc(c32)c2nc3ccccc3n12	–	4.69 ×10⁻⁷ M	–	–
C/C=C/C(=O)C1=C(C)CCCC1(C)C	–	–	–	inhibition [1]: 45%
CCCCC/C=C\C/C=C\CCCCCCCC(=O)NCCCN(C)C	75	–	69	–
C/C=C/C(=O)C1C(C)C=CCC1(C)C (stereo not drawn)	95	–	–	inhibition [3]: 64%
C[C@H]1[C@H](C)CC[C@]2(C(=O)O)CC[C@]3(C)C(=CC[C@@H]4[C@@]5(C)CC[C@H](O)C(C)(C)[C@@H]5CC[C@]43C)[C@H]12	–	5.94 ×10⁻⁷ M	–	–
CCC=CCCC=CC=O	–	–	20	–
CCCCC/C=C\C/C=C\CCCCCCCC(=O)NC(C)c1ccccc1 (stereo not drawn)	43	–	64	–
CC(=O)/C=C/C1C(C)=CCCC1(C)C (stereo not drawn)	–	1.42 ×10⁻⁴ M	–	–
O=c1c(O)c(-c2ccc(O)c(O)c2)oc2cc(O)cc(O)c12	–	5.11 ×10⁻⁵ M	–	–
CC(=O)c1cc2c(cc1C)C(C)(C)C(C)CC2(C)C (stereo not drawn)	33	–	–	–
CCOC(=O)C1=C(C)C=CCC1(C)C	49	–	–	–
C=CCCC(=O)/C=C/C1C(C)=CCCC1(C)C (stereo not drawn)	–	–	–	inhibition [3]: 17%
